Where two headings read alike, the source gives them in different places.
Experiments:
Type in all cases: cell-based, HIV-1
NRTI-resistant viruses = conditions: Mutant/WT (LAI) EC50 ratio, MT-2 cells, mean ± s.d. of three experiments
Experimental: (§1) The antiviral activity of the compound of Formula (a) was tested against a panel of known HIV-1 mutants resistant to HIV PIs (ATV and DRV), NRTIs (TFV and FTC), NNRTIs (RPV and EFV) or INSTIs (RAL, EVG and DTG) using a cytopathic antiviral assay in MT-2 cells.

WT LAI = experiment: microbe, parasite or virus in culture; conditions: Human immunodeficiency virus 1, MT2, read-out: WT LAI EC50
Experimental: as §1

PI-resistant viruses = experiment: Cytopathic antiviral assay in MT-2 cells, PI-resistant viruses; conditions: Mutant/WT (HXB2D) EC50 ratio, mean ± s.d. of three experiments
Experimental: as §1, with “cells. The compound of Formula (Ia) was fully active against all tested mutants resistant to PIs (Table 11), NRTIs (Table 12), NNRTIs (Table 13) or INSTIs (Table 14).” for “cells.”

INSTI-resistant viruses = experiment: Cytopathic antiviral assay in MT-2 cells, INSTI-resistant viruses; conditions: Mutant/WT (HXB2D) EC50 ratio, mean ± s.d. of three experiments
Experimental: as §1, with “cells. The compound of Formula (Ia) was fully active against all tested mutants resistant to PIs (Table 11), NRTIs (Table 12), NNRTIs (Table 13) or INSTIs (Table 14).” for “cells.”

WT HXB2D = experiment: Cytopathic antiviral assay in MT-2 cells, wild type HXB2D; conditions: Human immunodeficiency virus 1, MT2, read-out: WT HXB2D EC50, MT-2 cells, mean ± s.d. of three experiments in triplicate
Experimental: as §1, with “cells. The compound of Formula (Ia) was fully active against all tested mutants resistant to PIs (Table 11), NRTIs (Table 12), NNRTIs (Table 13) or INSTIs (Table 14).” for “cells.”

NNRTI-resistant viruses = experiment: Cytopathic antiviral assay in MT-2 cells, NNRTI-resistant viruses; conditions: Mutant/WT (HXB2D) EC50 ratio, mean ± s.d. of three experiments
Experimental: as §1, with “cells. The compound of Formula (Ia) was fully active against all tested mutants resistant to PIs (Table 11), NRTIs (Table 12), NNRTIs (Table 13) or INSTIs (Table 14).” for “cells.”

[1] = INSTI-resistance panel (Table 14)

Row | Compound | EC50 Fold-Change (NRTI-resistant viruses; 6TAMs) | EC50 Fold-Change (NRTI-resistant viruses; K65R) | EC50 Fold-Change (NRTI-resistant viruses; M184V) | EC50 (WT LAI) [nM] | EC50 Fold-Change (PI-resistant viruses; G48V/V82A/L90M) | EC50 Fold-Change (PI-resistant viruses; G48V/V82S) | EC50 Fold-Change (PI-resistant viruses; I50V) | EC50 Fold-Change (PI-resistant viruses; I84V/L90M) | EC50 Fold-Change (INSTI-resistant viruses; E92Q/N155H) | EC50 Fold-Change (INSTI-resistant viruses; E138K/Q148K) | EC50 Fold-Change (INSTI-resistant viruses; G140S/Q148R) | EC50 Fold-Change (INSTI-resistant viruses; N155H/Q148R) | EC50 Fold-Change (INSTI-resistant viruses; R263K/M50I) | EC50 Fold-Change (INSTI-resistant viruses; Y143R) | EC50 (WT HXB2D; [1]) [nM] | EC50 (WT HXB2D; PI-resistance panel (Table 11)) [nM] | other results
1 | Nc1nc(=O)n([C@@H]2CS[C@H](CO)O2)cc1F [FTC, emtricitabine] | 4.1 ± 2.5 | 12.8 ± 2.4 | >20.8 | 2.41 ± 1.16 |  |  |  |  |  |  |  |  |  |  |  |  | 
2 | COC(=O)N[C@H](C(=O)N[C@@H](Cc1ccccc1)[C@@H](O)CN(Cc1ccc(-c2ccccn2)cc1)NC(=O)[C@@H](NC(=O)OC)C(C)(C)C)C(C)(C)C [ATV, atazanavir] | 0.5 ± 0.2 | 0.9 ± 0.3 | 0.6 ± 0.2 | 4.78 ± 1.26 | 32.5 ± 11.9 | 15.4 ± 3.1 | 3.5 ± 0.4 | 33.1 ± 7.8 | 1.0 ± 0.4 | 0.8 ± 0.3 | 1.1 ± 0.5 | 0.9 ± 0.4 | 1.1 ± 0.6 | 0.8 ± 0.2 | 3.7 ± 1.07 | 4.18 ± 0.46 | EC50 (WT HXB2D; NNRTI-resistance panel (Table 13)): 4.6 ± 1.48 nM; EC50 Fold-Change (NNRTI-resistant viruses; K103N): 0.6 ± 0.3; EC50 Fold-Change (NNRTI-resistant viruses; K103N/Y181C): 0.6 ± 0.3; EC50 Fold-Change (NNRTI-resistant viruses; L100I/K103N): 0.6 ± 0.3; EC50 Fold-Change (NNRTI-resistant viruses; Y181C): 1.8 ± 1.0; EC50 Fold-Change (NNRTI-resistant viruses; Y188L): 0.6 ± 0.3
3 | COc1cc2c(cc1Cc1cccc(Cl)c1F)c(=O)c(C(=O)O)cn2[C@H](CO)C(C)C [EVG, elvitegravir] | 0.6 ± 0.4 | 0.8 ± 0.2 | 1.1 ± 0.7 | 2.64 ± 0.9 | 0.8 ± 0.4 | 0.7 ± 0.3 | 1.7 ± 1.0 | 1.0 ± 0.7 | >53.5 | >53.5 | >53.5 | 51.0 ± 2.5 | 5.1 ± 3.7 | 2.1 ± 0.2 | 1.87 ± 0.19 | 2.02 ± 0.88 | 

From patent publication US12594267B2, “Capsid inhibitors for the treatment of HIV” (Gilead Sciences, Inc., priority 2018, dated 2026)
